Results as given in publication PMC10327353 (Breast Cancer Research : BCR, 2023).

What was measured:
wild-type EGFR = target: T1, wild-type EGFR (Homo sapiens, UniProt P00533); assay: pEGFR MSD assay in A431 cells; assay type: cell-based
T1 construct: endogenous in cells; host or cells: A431
Experimental: A431 and BT474C1-Luci Mono1 cells were seeded in 96-well plates at 20,000 cells/well in DMEM medium containing 1% FBS. After overnight incubation, all cells were treated with compounds at a series of concentrations for 4 hrs. For A431 cell line, an extra stimulation with recombinant human EGF (100 ng/ml for 10 minutes) is applied to activate wild-type EGFR following compound treatment. pEGFR^Y1068 and total EGFR levels were measured by an electro chemiluminescent method (MULTI-SPOT®96 4-Spot HB Prototype EGFR Triplex […]: pEGFR (Y1068), Total EGFR; MESO SCALE DISCOVERY, Cat# N45ZB-1) with MSD SECTOR® Imager, which outputs the ratio of pEGFR/total EGFR for each well. pHER2^Y1248 and total HER2 levels were measured similarly using pHER2 (Y1248) Assay Whole Cell Lysate Kit (MESO SCALE DISCOVERY, Cat# K151CLD-3). The percentage of inhibition was calculated as: % Inhibition = 100 x [1 - (ratio of the sample well - ratio of Min ctrl well)/ (ratio of Max ctrl well - ratio of Min ctrl well)].

P-gp-BCRP = P-gp-BCRP efflux ratio, cellular transport assay; assay type: in vitro ADME, human
Experimental: A discussion of the structure–activity relationship (SAR) cumulated in the design of DZD1516 (Fig. 1) is as follows. The HER2 inhibitory potency screening for SAR development was performed using HER2 and EGFR enzymatic assays. The cellular activity was evaluated in HER2+ cell line BT474C1 by measuring pHER2 and antiproliferation activities. Cellular transport assays measuring the permeability and efflux ratio of compounds in cells expressing human P-gp (MDR1) and BCRP were used to provide essential information for assessing their BBB penetration potential.

[1] = Caco-2 passive permeability; assay type: in vitro ADME; conditions: human, Caco-2, pH 7.4; read-out: Caco-2 Papp (intrinsic passive permeability)
Text: Passive permeability (Papp) characterizes the rate across the cell membrane due to passive diffusion. A high permeability enables the rapid establishment of equilibrium among plasma, CSF, and brain compartments. Except for passive permeability, sufficient unbound drug concentration in the brain is governed by efflux transporters, including P-gp (MDR1, ABCB1) and BCRP, at BBB. Efflux ratio (ER) reflects the liability of a compound to be pumped out of the brain by BBB efflux transporters, which is indicated by the distribution disequilibrium between the plasma and the brain compartments.
Again, DZD1516 and DZ2678 permeability were evaluated in a bi-directional assay in Caco-2 cells at 5 μM. The efflux ratio of DZD1516 and DZ2678, with or without novobiocin (a selective BCRP inhibitor), determined whether DZD1516 or DZ2678 was transported via BCRP in Caco-2 cells. The apical-to-basolateral (A-B) and basolateral-to-apical (B-A) transport of DZD1516/DZ2678 in HBSS (25 mM HEPES, pH 7.4) with 0.1% BSA was measured across Caco-2 cell monolayers in the absence and presence of BCRP inhibitor, novobiocin (30 μM). […] Transport of 5 µM DZD1516/DZ2678 and control compound was determined by quantifying substrate concentration in the incubation medium of the donor compartment at the beginning of the incubation period and both donor and receiver compartments at the end of the incubation period. […]

CYP P450s = assay: CYP P450 inhibition and induction; assay type: in vitro ADME; conditions: in vitro

T1 sequence (P00533 25-1210): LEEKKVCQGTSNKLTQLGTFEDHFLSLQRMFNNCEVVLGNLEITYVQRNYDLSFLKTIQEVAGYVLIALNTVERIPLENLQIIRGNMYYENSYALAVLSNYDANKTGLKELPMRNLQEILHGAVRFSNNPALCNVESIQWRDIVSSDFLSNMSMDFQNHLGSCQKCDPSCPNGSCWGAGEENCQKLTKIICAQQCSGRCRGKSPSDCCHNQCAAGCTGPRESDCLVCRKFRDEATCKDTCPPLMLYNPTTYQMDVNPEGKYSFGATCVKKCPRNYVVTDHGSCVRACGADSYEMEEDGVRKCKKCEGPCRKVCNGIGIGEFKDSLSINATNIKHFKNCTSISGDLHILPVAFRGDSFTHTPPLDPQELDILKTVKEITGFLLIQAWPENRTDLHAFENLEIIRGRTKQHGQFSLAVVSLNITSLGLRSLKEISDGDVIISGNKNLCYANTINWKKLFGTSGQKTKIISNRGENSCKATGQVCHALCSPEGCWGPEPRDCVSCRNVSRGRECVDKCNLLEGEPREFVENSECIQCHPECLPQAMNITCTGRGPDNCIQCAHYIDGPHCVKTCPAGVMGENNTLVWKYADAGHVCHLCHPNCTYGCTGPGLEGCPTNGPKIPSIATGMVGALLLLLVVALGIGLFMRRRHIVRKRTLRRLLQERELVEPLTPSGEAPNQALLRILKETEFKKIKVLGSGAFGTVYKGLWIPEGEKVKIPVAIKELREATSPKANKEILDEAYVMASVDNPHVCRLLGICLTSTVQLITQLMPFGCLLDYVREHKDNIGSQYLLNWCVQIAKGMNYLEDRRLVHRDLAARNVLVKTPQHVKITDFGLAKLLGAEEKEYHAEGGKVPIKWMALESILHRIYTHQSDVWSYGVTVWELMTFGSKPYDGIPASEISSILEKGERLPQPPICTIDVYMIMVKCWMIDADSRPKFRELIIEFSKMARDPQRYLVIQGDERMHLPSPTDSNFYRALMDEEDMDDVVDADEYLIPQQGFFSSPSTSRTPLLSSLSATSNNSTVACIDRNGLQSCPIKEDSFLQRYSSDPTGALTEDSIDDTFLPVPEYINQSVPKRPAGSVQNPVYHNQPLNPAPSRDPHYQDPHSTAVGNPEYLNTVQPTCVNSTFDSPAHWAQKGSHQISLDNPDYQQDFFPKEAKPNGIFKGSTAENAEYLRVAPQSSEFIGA

SMILES: COc1cc(O[C@H]2CCN(C)CC2(F)F)c2c(Nc3ccc(Oc4ccn5ncnc5c4)c(C)c3)ncnc2c1 [DZD1516]
- IC50 (wild-type EGFR; A431, 4 hrs treatment, EGF stimulation): 1460 nM
- selectivity against wild-type EGFR (wild-type EGFR; pEGFR A431 vs pHER2 BT474C1): greater than 300 fold
- efflux ratio at 1 µM (P-gp-BCRP; human, not told, 1 µM): 1.8
- active efflux via P-gp and BCRP (P-gp-BCRP; in vitro): do not undergo active efflux via P-gp and BCRP in vitro
- Papp at 120 min, 5 μM [1]: 90 ×10⁻⁶ cm/s
- CYP P450s inhibitor and inducer (CYP P450s): not a CYP P450s inhibitor and inducer
